From patent US20100120738A1, “ANTI-APOPTOTIC BENZODIAZEPINE RECEPTOR LIGAND INHIBITORS” (priority 2006, published 2010)
Like-named read-outs stand apart in the source and are kept apart here.

Key:
[1] = Superoxide dismutase (SOD) activity; type: biochemical
[2] = test system: Bovine capillary endothelial cells; assay: Cytotoxicity/necrosis of non-irradiated cells (LDH release, field number); type: cell-based
Method: Bovine capillary endothelial cells were cultured on eight-chamber Labtek slides and exposed to ionizing radiation (20 Gy), which was calibrated using an X-ray exposure meter. […] In control experiments, cells either received no ionizing radiation (sham) or no compound. After 6 h incubation, the cells were fixed in methanol and stained with 5 μg/ml 4,6-diamidino-2-phenylindole (DAPI). DNA was visualized using a Nikon epifluorescence microscope, and apoptosis was scored and expressed as an apoptotic index (% apoptotic cells in a field of 100). […] Field number was also calculated for all other compounds tested as a control (results not shown).
To determine cytotoxicity of the compounds under these conditions, duplicate samples of the cells receiving a dose of compound at each concentration tested in the absence of a dose of ionizing radiation were assayed for release of LDH into the culture medium.

[3] = Stability in USP simulated gastric fluid (SGF); type: in vitro ADME; conditions: 37° C., pH approx. 1.2
Description: Aliquots of SGF were withdrawn and intact compound quantitated by HPLC-UV.

[4] = test system: Bovine capillary endothelial cells; assay: Protection against radiation-induced apoptosis (DAPI apoptotic index); type: cell-based; conditions: for concentration providing protection from the apoptotic effects of ionizing radiation: DAPI staining, apoptotic index, 6 h
Method: Bovine capillary endothelial cells were cultured on eight chamber Labtek slides and exposed to ionizing radiation (20 Gy) for 6 hours. After this time, cells were either left untreated or treated with compound at the concentration indicated on the x-axis. Cells were then fixed in methanol and stained with 5 μg/ml DAPI and DNA was visualized using a Nikon epifluorescence microscope, and apoptosis scored and expressed as an apoptotic index according to the percentage of apoptotic cells in a field of 100 cells. Open bars indicate apoptotic index following irradiation. Hatched bars indicate apoptotic index for control cells not receiving a dose of ionizing radiation.
Bovine capillary endothelial cells were cultured on eight-chamber Labtek slides and exposed to ionizing radiation (20 Gy), which was calibrated using an X-ray exposure meter. […] In control experiments, cells either received no ionizing radiation (sham) or no compound. After 6 h incubation, the cells were fixed in methanol and stained with 5 μg/ml 4,6-diamidino-2-phenylindole (DAPI). DNA was visualized using a Nikon epifluorescence microscope, and apoptosis was scored and expressed as an apoptotic index (% apoptotic cells in a field of 100).

[5] = test system: PC12 cells; assay: Protection against STS-induced apoptosis in PC12 cells (XTT viability assay); type: cell-based, rat
Method: Rat pheochromocytoma (PC12) cells were cultured in collagen-coated 96-well plates according to directions provided by the American Type Culture Collection. Staurosporine was added at various concentrations sufficient to induce apoptosis. Test compounds were added together with the staurosporine. Cells were incubated overnight at 37° C., 5% CO2. After 18-24 hours, test media was removed and cell viability was determined using the XTT viability assay described by Baker et al., J. Pharmacol. Exp, Therapeutics 284, 215-221, 1998, the contents of which are incorporated herein by reference.

[6] = test system: cultured mesencephalic tissue slices; assay: MPP+ induced neurodegeneration in cultured mesencephalic tissue slices (LDH release); type: cell-based, rat; conditions: 20 μM MPP+; for prevention of cytotoxicity induced by MPP+: compound 100 nM, 1.0 μM, 10 μM, FIG. 17
Method: FIG. 17 is a graphical representation showing the effects of exemplary low molecular weight metalloporphyrin compounds of the present invention on MPP+ induced neurodegeneration in cultured mesencephalic tissue slices. Mesencephalic tissue slices were prepared from PND 3-5 rats and maintained in culture for 2 weeks. The tissue slices were incubated with a porphyrin compound as indicated on the x-axis for 6 hours before adding 20 μM MPP+ to induce neuronal apoptosis. Concentrations of each porphyrin compound tested were 100 nM ? 1.0 μM ? and 10 μM ? Following a further incubation for 48 hours, the slices were collected and the level of lactate dehydrogenase (LDH) released into the medium was determined.

[7] = Lipophilicity by octanol partitioning; type: physicochemical; conditions: for Log10 P value / P value (octanol partitioning coefficient): octanol-water
Method: To indicate the likelihood that the compounds will cross lipid membranes and be absorbed once administered by oral means, their lipophilicities were determined by octanol partitioning. […] Quantitation was performed by HPLC-UV.

[8] = Oral bioavailability in vivo, plasma levels by LC-MS/MS after intragastric gavage; set-up: species or system rat; conditions: intragastric gavage, 4 mg/kg EUK-418 or 2 mg/kg EUK-423
Method: FIG. 18 is a graphical representation showing the bioavailability in vivo for the compounds {[{(Porphine-5,15-diyl)bis[cyclopropyl-diyl]}](2-)-N^21,N^22,N^23,N^24} manganese(III) acetate (EUK-418) and {[{(Porphine-5,15-diyl)bis[benzyl-diyl]}](2-)-N^21,N^22,N^23,N^24} manganese(III) acetate (EUK-423) in rats. Fasted and fed Sprague-Dawley rats were dosed by intragastric gavage with either 4 mg/kg EUK-418 or 2 mg/kg EUK-423. At the times indicated on the x-axis, plasma was obtained from the animals and the concentrations of compounds determined by LC-MS/MS.
Fasted and fed Sprague-Dawley rats were dosed by intragastric gavage with either 4 mg/kg EUK-418 or 2 mg/kg EUK-423. At time points up to 7 hr post-administration, animals were sacrificed, their blood collected over heparin, plasma samples prepared by centrifugation, and plasma levels of the compounds were determined by LC-MS/MS.

[9] = target: mitochondrial benzodiazepine receptor (mBzR) (Homo sapiens, UniProt P30536); assay: Inhibition of tritiated PK11195 binding to the receptor; conditions: read-out: Ki against the binding of PK11195
mitochondrial benzodiazepine receptor (mBzR), sequence (P30536 whole entry, species assumed): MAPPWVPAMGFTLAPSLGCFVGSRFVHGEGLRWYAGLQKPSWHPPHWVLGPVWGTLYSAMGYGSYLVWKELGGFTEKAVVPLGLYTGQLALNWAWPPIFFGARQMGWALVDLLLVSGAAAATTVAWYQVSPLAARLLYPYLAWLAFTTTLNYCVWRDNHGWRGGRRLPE
Method: Standard methods e.g., competition assays, are used to determine ge an inhibition, prevention or delay in binding of a ligand of a mitochondrial benzodiazepine receptor by a low molecular weight porphyrin derivative compound of the invention. As exemplified herein, labelled PK11195 compound is contacted with the receptor in the presence of different concentrations of a compound being tested and binding of the labelled PK11195 compound is determined. […] Preferably, the concentration of the compound being tested that inhibits binding of the ligand by 50% (i.e., […]) is determined.
FIG. 15 is a graphical representation showing the ability of the compounds {[{(Porphine-5,15-diyl)bis[cyclopropyl-diyl]}](2-)-N^21,N^22,N^23,N^24} manganese (III) acetate (EUK-418) and (5,10,15,20-Tetra ethylporphyrinato) manganese (III) acetate (EUK-425) to inhibit binding of tritiated PK11195 to the mitochondrial benzodiazepine receptor (mBzR). The Ki value for each compound is indicated.
FIG. 16 is a tabular representation showing a series of low molecular weight metalloporphyrin compounds designated EUK-418, EUK-423, EUK-424, EUK-425 and EUK-426, that inhibit ligand binding to the mitochondrial benzodiazepine receptor (mBzR) with moderate affinity, as determined by the Ki value (last column) for inhibition of tritiated PK11195, binding to the receptor. […]

[10] = Plasma recovery after oral dose (another study); type: in vivo; conditions: 3.5 mg/kg dose administered orally; not shown
[11] = cuvette format, read-out: Cuvette IC50
[12] = microplate format, read-out: Microplate IC50
[13] = FIG. 12, at up to about 5 μM concentration, toxicity blunts protection at high concentrations
[14] = FIG. 12, among compounds tested

Compound | IC50 [1, 11] [µM] | IC50 [1, 12] [µM] | Percentage remaining after 90 mins in SGF [3] [%] | effect on staurosporine-induced apoptosis of PC12 cells [5, 13] | prevention of cytotoxicity induced by MPP+ [6] | Log10 P value [7] | P value (octanol partitioning coefficient) [7] | further results
CC(=O)O.CCOc1cccc(C=NCCN=Cc2cccc(OCC)c2O)c1O.[Mn] [EUK-189, reference compound] | 0.55 | 0.824 | – | – | – | – | – | –
C1=Cc2nc1cc1ccc([n-]1)c(-c1ccccc1)c1nc(cc3ccc([n-]3)c2-c2ccccc2)C=C1.CC(=O)[O-].[Mn+3] [EUK-423, {[{(Porphine-5,15-diyl)bis[benzyl-diyl]}](2-)-N^21,N^22,N^23,N^24} manganese(III) acetate] | 17.3 | 4.1 | 91.2 | effectively reduce apoptosis | prevent cytotoxicity | 0.907 ± 0.002 | 8.07 ± 0.10 | necrosis at the protective concentration ([2]; 3 μM EUK-418, about 3-10 μM EUK-423): no detectable necrosis; concentration causing significant increase in field number for control cells, indicating cytotoxicity ([2]; control cells without ionizing radiation): ≥ 30 µM; concentration providing protection from the apoptotic effects of ionizing radiation ([4]; 20 Gy): 3 to 10 µM; protection of cells exposed to ionizing radiation ([4]; about 3-10 μM compound, 20 Gy, p<0.006): approximately 87%; protection of cells exposed to ionizing radiation ([4]; low doses, FIG. 13 and FIG. 14): protected; effect on staurosporine-induced apoptosis of PC12 cells ([5]; FIG. 11): effectively reduce apoptosis; plasma time course [8]: increased in plasma during the first four hour period; found in plasma / bioavailable after oral administration ([8]; fasted and fed rats): bioavailable in vivo
CC(=O)[O-].CC(C)c1c2nc(c(C(C)C)c3ccc([n-]3)c(C(C)C)c3nc(c(C(C)C)c4ccc1[n-]4)C=C3)C=C2.[Mn+3] [EUK-424, (5,10,15,20-Tetraisopropylporphyrinato)manganese (III) acetate] | – | – | – | – | prevent cytotoxicity | – | – | –
CC(=O)[O-].CCc1c2nc(c(CC)c3ccc([n-]3)c(CC)c3nc(c(CC)c4ccc1[n-]4)C=C3)C=C2.[Mn+3] [EUK-425, (5,10,15,20-Tetraethylporphyrinato)manganese (III) acetate] | 32.5 | 0.439 | 97.0 | effectively reduce apoptosis | prevent cytotoxicity | 0.932 ± 0.006 | 8.56 ± 0.35 | necrosis at the doses tested ([2]; range of 0.5 μM to 100 μM, data therefore expressed as field number): necrosis was observed; Ki [9]: 0.027 µM; EC50 ([6]; LDH release, read-out: EC50 in MPP+ slice model): < 0.1 µM
CC(=O)[O-].COc1ccc(-c2c3nc(cc4ccc([n-]4)c(-c4ccc(OC)cc4)c4nc(cc5ccc2[n-]5)C=C4)C=C3)cc1.[Mn+3] [EUK-450, {[{(Porphine-5,15-diyl)bis[benzene-1,4 diyl (4-methyl-oxy)]}](2-)-N^21,N^22,N^23,N^24} manganese(III) acetate] | 9.98 | 3.12 | 98.1 | effectively reduce apoptosis | – | 0.650 ± 0.010 | 4.46 ± 0.11 | –
C1=Cc2nc1cc1ccc([n-]1)c(C1CCOCC1)c1nc(cc3ccc([n-]3)c2C2CCOCC2)C=C1.[Cl-].[Mn+3] [EUK-451, {[{(Porphine-5,15-diyl)bis[4-Tetrahydropyrano-diyl]}](2-)-N^21,N^22,N^23,N^24} manganese(III) chloride] | 29.1 | 2.39 | 100 | effectively reduce apoptosis | – | −0.660 ± 0.011 | 0.219 ± 0.005 | recovery from plasma [10]: recovered from plasma at low levels; relative activity against STS-induced apoptosis [5, 14]: highest activity; relative toxicity in PC12 model [5, 14]: lowest toxicity
C1=Cc2nc1cc1ccc([n-]1)c(C1CCCCC1)c1nc(cc3ccc([n-]3)c2C2CCCCC2)C=C1.[Cl-].[Mn+3] [EUK-452, {[{(Porphine-5,15-diyl)bis[cyclohexyl-diyl]}](2-)-N^21,N^22,N^23,N^24} manganese(III) chloride] | 20.1 | 9.05 | 98.2 | effectively reduce apoptosis | – | 1.973 ± 0.008 | 93.97 ± 1.67 | concentration providing protection from the apoptotic effects of ionizing radiation ([4]; 20 Gy): 3 µM; lipophilicity ([7]; octanol partitioning): most lipophilic
CCCc1c2nc(cc3ccc([n-]3)c(CCC)c3nc(cc4ccc1[n-]4)C=C3)C=C2.[Cl-].[Mn+3] [EUK-453, {[{(Porphine-5,15-diyl)bis[propyl-diyl]}](2-)-N^21,N^22,N^23,N^24} manganese(III) chloride] | 60.9 | 2.3 | 98.4 | effectively reduce apoptosis | – | 0.619 ± 0.017 | 4.16 ± 0.16 | –
